In US20090069300A1, “ISOQUINOLINYL AND ISOINDOLINYL DERIVATIVES AS HISTAMINE-3 ANTAGONISTS” (Wyeth, priority 2007, published 2009):
Where a name gives a salt, the structure may show the parent alone.

First: CCN(C)C(=O)c1ccc(-c2ccc3c(c2)CCN(CCN2CCCC2)C3=O)cc1 (as salt: hydrochloride) [Example 124, N-ethyl-N-methyl-4-[1-oxo-2-(2-pyrrolidin-1-ylethyl)-1,2,3,4-tetrahydroisoquinolin-6-yl]benzamide]
Second: CNC(=O)c1ccc(-c2ccc3c(c2)CCN(CCCN2CCCC2)C3=O)cc1 (as salt: hydrochloride) [Example 141, N-methyl-4-[1-oxo-2-(3-pyrrolidin-1-ylpropyl)-1,2,3,4-tetrahydroisoquinolin-6-yl]benzamide]
The melting point of the first is higher: 200 to 201 °C for the first, 158 to 159 °C for the second.

First: O=C(NCc1ccco1)c1ccc(-c2ccc3c(c2)CCN(CCN2CCCC2)C3=O)cc1 (as salt: hydrochloride) [Example 125, N-(2-furylmethyl)-4-[1-oxo-2-(2-pyrrolidin-1-ylethyl)-1,2,3,4-tetrahydroisoquinolin-6-yl]benzamide]
Second: O=C(Nc1nccs1)c1ccc(-c2ccc3c(c2)CCN(CCN2CCCC2)C3=O)cc1 (as salt: hydrochloride) [Example 130, 4-[1-oxo-2-(2-pyrrolidin-1-ylethyl)-1,2,3,4-tetrahydroisoquinolin-6-yl]-N-1,3-thiazol-2-ylbenzamide]
The melting point of the first is lower: 211 to 213 °C for the first, 284 to 285 °C for the second.

First: COC[C@H](C)NC(=O)c1ccc(-c2ccc3c(c2)CCN(CCN2CCCC2)C3=O)cc1 (as salt: hydrochloride) [Example 126, N-[(1S)-2-methoxy-1-methylethyl]-4-[1-oxo-2-(2-pyrrolidin-1-ylethyl)-1,2,3,4-tetrahydroisoquinolin-6-yl]benzamide]
Second: COC[C@@H]1CCCN1C(=O)c1ccc(-c2ccc3c(c2)CCN(CCN2CCCC2)C3=O)cc1 (as salt: hydrochloride) [Example 128, 6-(4-{[(2S)-2-(methoxymethyl)pyrrolidin-1-yl]carbonyl}phenyl)-2-(2-pyrrolidin-1-ylethyl)-3,4-dihydroisoquinolin-1(2H)-one]
The melting point of the first is higher: 232 to 233 °C for the first, 193 to 195 °C for the second.

First: CN(C)C(=O)c1ccc(-c2ccc3c(c2)CCN(CCN2CCCC2)C3=O)c(F)c1 (as salt: hydrochloride) [Example 137, 3-fluoro-N,N-dimethyl-4-[1-oxo-2-(2-pyrrolidin-1-ylethyl)-1,2,3,4-tetrahydroisoquinolin-6-yl]benzamide]
Second: CNC(=O)c1ccc(-c2ccc3c(c2)CCN(CCN2CCCC2)C3=O)c(F)c1 (as salt: hydrochloride) [Example 139, 3-fluoro-N-methyl-4-[1-oxo-2-(2-pyrrolidin-1-ylethyl)-1,2,3,4-tetrahydroisoquinolin-6-yl]benzaimde]
The melting point of the first is higher: 228 to 229 °C for the first, 188 to 190 °C for the second.

First: O=C(c1ccc(-c2ccc3c(c2)CCN(CCN2CCCC2)C3=O)c(F)c1)N1CCCC1 (as salt: hydrochloride) [Example 138, 6-[2-fluoro-4-(pyrrolidin-1-ylcarbonyl)phenyl]-2-(2-pyrrolidin-1-ylethyl)-3,4-dihydroisoquinolin-1(2H)-one]
Second: O=C(c1ccc2c(c1)CCN(CCN1CCCC1)C2=O)N1CCCCC1 (as salt: hydrochloride) [Example 155, 6-(piperidine-1-carbonyl)-2-(2-(pyrrolidin-1-yl)ethyl)-3,4-dihydroisoquinolin-1(2H)-one]
The melting point of the first is higher: 225 to 226 °C for the first, 144 to 147 °C for the second.

First: CCNC(=O)c1ccc(-c2ccc3c(c2)CCN(CCN2CCCC2)C3=O)c(F)c1 (as salt: hydrochloride) [Example 140, N-ethyl-3-fluoro-4-[1-oxo-2-(2-pyrrolidin-1-ylethyl)-1,2,3,4-tetrahydroisoquinolin-6-yl]benzamide]
Second: CN1CCc2cc(-c3ccc4c(c3)CCN(CCN3CCCC3)C4=O)ccc2C1=O (as salt: hydrochloride) [Example 158, 2-methyl-2′-(2-(pyrrolidin-1-yl)ethyl)-3,3′,4,4′-tetrahydro-6,6′-biisoquinoline-1,1′(2H,2′H)-dione hydrochloride]
The melting point of the first is lower: 209 to 210 °C for the first, 225 to 226 °C for the second.

First: C[C@@H]1CCCN1CCN1CCc2cc(C(=O)N3CCCCCC3)ccc2C1=O (as salt: hydrochloride) [Example 144, 6-(azepan-1-ylcarbonyl)-2-{2-[(2R)-2-methylpyrrolidin-1-yl]ethyl}-3,4-dihydroisoquinolin-1(2H)-one]
Second: C[C@@H]1CCCN1CCN1CCc2cc(C(=O)N3CCCC3)ccc2C1=O (as salt: hydrochloride) [Example 151, 2-{2-[(2R)-2-methylpyrrolidin-1-yl]ethyl}-6-(pyrrolidin-1-ylcarbonyl)-3,4-dihydroisoquinolin-1(2H)-one]
The melting point of the first is higher: 192 to 193 °C for the first, 166 to 167 °C for the second.

First: C[C@@H]1CCCN1CCN1CCc2cc(C(=O)NC3CCC3)ccc2C1=O (as salt: hydrochloride) [Example 145, N-cyclobutyl-2-{2-[(2R)-2-methylpyrrolidin-1-yl]ethyl}-1-oxo-1,2,3,4-tetrahydroisoquinoline-6-carboxamide]
Second: C[C@@H]1CCCN1CCN1CCc2cc(C(=O)NC3CCCC3)ccc2C1=O (as salt: hydrochloride) [Example 149, N-cyclopentyl-2-{2-[(2R)-2-methylpyrrolidin-1-yl]ethyl}-1-oxo-1,2,3,4-tetrahydroisoquinoline-6-carboxamide]
The melting point of the first is lower: 214 to 215 °C for the first, 219 to 220 °C for the second.

Compared with `C[C@@H]1CCCN1CCN1CCc2cc(C(=O)NC3CCCCC3)ccc2C1=O` (as salt: hydrochloride) [Example 147, N-cyclohexyl-2-{2-[(2R)-2-methylpyrrolidin-1-yl]ethyl}-1-oxo-1,2,3,4-tetrahydroisoquinoline-6-carboxamide], `C[C@@H]1CCCN1CCN1CCc2cc(C(=O)NC3Cc4ccccc4C3)ccc2C1=O` (as salt: hydrochloride) [Example 148, N-(2,3-dihydro-1H-inden-2-yl)-2-{2-[(2R)-2-methylpyrrolidin-1-yl]ethyl}-1-oxo-1,2,3,4-tetrahydroisoquinoline-6-carboxamide] is higher in melting point: 140 to 141 °C for the first, 145 to 146 °C for the second.

First: C[C@@H]1CCCN1CCN1CCc2cc(C(=O)N3Cc4ccccc4C3)ccc2C1=O (as salt: hydrochloride) [Example 152, 6-(1,3-dihydro-2H-isoindol-2-ylcarbonyl)-2-{2-[(2R)-2-methylpyrrolidin-1-yl]ethyl}-3,4-dihydroisoquinolin-1(2H)-one]
Second: O=C(c1ccc2c(c1)CCN(CCN1CCCC1)C2=O)N1Cc2ccccc2C1 (as salt: hydrochloride) [Example 156, 6-(isoindoline-2-carbonyl)-2-(2-(pyrrolidin-1-yl)ethyl)-3,4-dihydroisoquinolin-1(2H)-one]
The melting point of the first is lower: 109 to 110 °C for the first, 220 to 221 °C for the second.

First: C[C@@H]1CCCN1CCN1CCc2cc(-c3ccc4c(c3)CCNC4=O)ccc2C1=O (as salt: hydrochloride) [Example 157, (R)-2-(2-(2-methylpyrrolidin-1-yl)ethyl)-3,3′,4,4′-tetrahydro-6,6′-biisoquinoline-1,1′(2H,2′H-dione hydrochloride]
Second: C[C@@H]1CCCN1CCN1CCc2cc(N3CCCC3)ccc2C1=O (as salt: hydrochloride) [Example 165, (R)-2-(2-(2-methylpyrrolidin-1-yl)ethyl)-6-(pyrrolidin-1-yl)-3,4-dihydroisoquinolin-1(2H)-one]
The melting point of the first is higher: 272 to 273.5 °C for the first, 182 to 183 °C for the second.

`O=C1c2ccc(N3CCCCC3)cc2CCN1CCN1CCCC1` (as salt: hydrochloride) [Example 162, 6-(piperidin-1-yl)-2-(2-(pyrrolidin-1-yl)ethyl)-3,4-dihydroisoquinolin-1(2H)-one] and `O=C1c2ccc(N3CCCCC3)cc2CCN1CCN1CCCCC1` (as salt: hydrochloride) [Example 163, 6-(piperidin-1-yl)-2-(2-(piperidin-1-yl)ethyl)-3,4-dihydroisoquinolin-1(2H)-one] fall in the same range of melting point: 245 to 246 °C for the first, 245 to 246 °C for the second.

Compared with `O=C1c2ccc(N3CCCCC3)cc2CCN1CCN1CCCCCC1` (as salt: hydrochloride) [Example 164, 2-(2-(azepan-1-yl)ethyl)-6-(piperidin-1-yl)-3,4-dihydroisoquinolin-1(2H)-one], `C[C@@H]1CCCN1CCN1CCc2cc(N3CCCCCC3)ccc2C1=O` (as salt: hydrochloride) [Example 166, (R)-6-(azepan-1-yl)-2-(2-(2-methylpyrrolidin-1-yl)ethyl)-3,4-dihydroisoquinolin-1(2H)-one] is lower in melting point: 229 to 231 °C for the first, 182 to 184 °C for the second.

Compared with `NC(=O)c1ccc(-c2ccc3c(c2)CCN(CCN2CCCC2)C3)cc1` (as salt: hydrochloride) [Example 180, 4-[2-(2-pyrrolidin-1-ylethyl)-1,2,3,4-tetrahydroisoquinolin-6-yl]benzamide], `CNC(=O)c1ccc(-c2ccc3c(c2)CCN(CCN2CCCC2)C3)cc1` (as salt: hydrochloride) [Example 181, N-methyl-4-[2-(2-pyrrolidin-1-ylethyl)-1,2,3,4-tetrahydroisoquinolin-6-yl]benzamide] is higher in melting point: 262 to 264 °C for the first, 280 to 281 °C for the second.

First: CCNC(=O)c1ccc(-c2ccc3c(c2)CCN(CCN2CCCC2)C3)cc1 (as salt: hydrochloride) [Example 182, N-ethyl-4-[2-(2-pyrrolidin-1-ylethyl)-1,2,3,4-tetrahydroisoquinolin-6-yl]benzamide]
Second: CN(C)C(=O)c1ccc(-c2ccc3c(c2)CCN(CCN2CCCC2)C3)cc1 (as salt: hydrochloride) [Example 183, N,N-dimethyl-4-[2-(2-pyrrolidin-1-ylethyl)-1,2,3,4-tetrahydroisoquinolin-6-yl]benzamide]
The melting point of the first is higher: 266 to 268 °C for the first, 248 to 250 °C for the second.

`O=C(c1ccc(-c2ccc3c(c2)CCN(CCN2CCCC2)C3)cc1)N1CCCC1` (as salt: hydrochloride) [Example 184, 6-[4-(pyrrolidin-1-ylcarbonyl)phenyl]-2-(2-pyrrolidin-1-ylethyl)-1,2,3,4-tetrahydroisoquinoline] gave a melting point of 241 to 242 °C.

Compound `C[C@@H]1CCCN1CCN1CCc2cc(N3CCCCC3)ccc2C1=O` (as salt: hydrochloride) [Example 161, 2-{2-[(2R)-2-methylpyrrolidin-1-yl]ethyl}-6-piperidin-1-yl-3,4-dihydroisoquinolin-1(2H)-one] has a melting point greater than 225 °C.
